Laboratory results as given in PMC9919699, “A Comprehensive Approach to Derivatization: Elemental Composition, Biochemical, and In Silico Studies of Metformin Derivatives Containing Copper and Zinc Complexes” (Molecules, 2023).
Read-outs that look alike come from different tables or passages of the source.

Tests used:
[1] = tested on: α-glucosidase; assay: α-glucosidase enzyme inhibition assay (starch substrate, anthrone reagent, 640 nm); format: biochemical
Procedure: The α-glucosidase-inhibitory activity of all derivatives of metformin was tested using the method previously described. Three test tubes were marked as test (T), blank (B), and control (C). Then, 200 µL of substrate (starch) and enzyme (α-glucosidase) was added to test tubes T and C. The contents were mixed well, and then the test tubes were incubated at 37 °C for 30 min. After incubation, trichloroacetic acid was added to all test tubes, which were then centrifuged for 10 min. Free glucose was available after the reaction with anthrone reagent (1.5 mL). The contents in the test tubes were boiled for 15 min, and the absorbance was read at a wavelength at 640 nm. The percentage inhibition was calculated using the following formula:Percentage inhibition = OD of control − OD of test tube/OD of control × 100.

[2] = target: α-amylase; assay: α-amylase enzyme inhibition assay (starch, dinitro-salicylic acid, 540 nm); format: biochemical
Procedure: All derivatives of metformin were analyzed for serum amylase inhibitory activity using the Yukihoko Hara method. Three test tubes were labeled as blank (B), test (T), and control (C). Then, 2.5 mL of phosphate buffer (pH 6.8) was added to each test tube. Next, 1 mL of starch and 1 mL of 2 N sodium chloride solution were added to each test tube. The test tubes were incubated at 37 °C for 10 min. After incubation, 0.5 mL of derivatives was added to test tube T, followed by 0.2 mL of enzyme (α-amylase). All contents were mixed well, and then the tube was incubated at 37 °C for 10 min. In the control test tube, normal saline (2 N), starch solution (1 mL), and enzyme solution (0.2 mL) were added before incubating at 37 °C for 10 min. In the blank test tube, only 5.7 mL of distilled water was added. Dinitro-salicylic acid (0.2 mL) was added to all test tubes. The contents were mixed well, and the test tubes were kept in a boiling water bath for 15 min. The intensity of reddish orange was read at 540 nm. The percentage inhibitory action of serum amylase was calculated using the following formula:Percentage inhibition = OD of control − OD of test tube/OD of control × 100.

[3] = 250 µg/mL, Table 5 (MCu series)
[4] = 500 µg/mL, Table 5 (MCu series)
[5] = 1000 µg/mL, Table 5 (MCu series)
[6] = Table 5 (MCu series), read-out: IC50
[7] = 250 µg/mL, Table 8 (MCu series)
[8] = 500 µg/mL, Table 8 (MCu series)
[9] = 1000 µg/mL, Table 8 (MCu series)
[10] = Table 8 (MCu series), read-out: IC50
[11] = 250 µg/mL, Table 6 (MZn series)
[12] = 500 µg/mL, Table 6 (MZn series)
[13] = 1000 µg/mL, Table 6 (MZn series)
[14] = Table 6 (MZn series), read-out: IC50
[15] = 250 µg/mL, Table 9 (MZn series)
[16] = 500 µg/mL, Table 9 (MZn series)
[17] = 1000 µg/mL, Table 9 (MZn series)
[18] = Table 9 (MZn series), read-out: IC50
[19] = 250 µg/mL, Table 4 (Met series)
[20] = 500 µg/mL, Table 4 (Met series)
[21] = 1000 µg/mL, Table 4 (Met series)
[22] = 250 µg/mL, Table 7 (Met series)
[23] = 500 µg/mL, Table 7 (Met series)
[24] = 1000 µg/mL, Table 7 (Met series)
[25] = Table 7 (Met series), read-out: IC50
[26] = Table 4 (Met series), read-out: IC50

Structure (SMILES): COc1cc(C=NC(=N)NC(=N)N(C)C)ccc1O.COc1cc(C=NC(=N)NC(=N)N(C)C)ccc1O.O.O.O.O.O.O=S(=O)([O-])[O-].[Cu+2] [MCu8]
- % Inhibition [1, 3]: 41.50 ± 0.26%
- % Inhibition [1, 4]: 67.35 ± 35%
- % Inhibition [1, 5]: 83.14 ± 0.09%
- IC50 [1, 6]: 720 µM
- IC50 [2]: 712.6 µg/mL
- % Inhibition [2, 7]: 42.68 ± 0.46%
- % Inhibition [2, 8]: 61.35 ± 0.51%
- % Inhibition [2, 9]: 84.35 ± 0.51%
- IC50 [2, 10]: 900 µM

Structure (SMILES): CN(C)C(=N)NC(=N)N=C(c1ccccc1)C(O)c1ccccc1.CN(C)C(=N)NC(=N)N=C(c1ccccc1)C(O)c1ccccc1.O.O.O.O.O.O=S(=O)([O-])[O-].[Cu+2] (stereo not drawn) [MCu9]
- % Inhibition [1, 3]: 15.23 ± 0.12%
- % Inhibition [1, 4]: 28.37 ± 0.20%
- % Inhibition [1, 5]: 49.49 ± 0.25%
- IC50 [1, 6]: 200 µM
- % Inhibition [2, 7]: 13.46 ± 0.23%
- % Inhibition [2, 8]: 34.66 ± 0.40%
- % Inhibition [2, 9]: 67.48 ± 0.40%
- IC50 [2, 10]: 130 µM

Structure (SMILES): CN(C)C(=N)NC(=N)N=Cc1ccccc1.CN(C)C(=N)NC(=N)N=Cc1ccccc1.O.O.O.O.O.O=S(=O)([O-])[O-].[Zn+2] [MZn1]
- % Inhibition [1, 11]: 54.74 ± 0.15%
- % Inhibition [1, 12]: 62.48 ± 0.19%
- % Inhibition [1, 13]: 77.57 ± 0.20%
- IC50 [1, 14]: 700 µM
- % Inhibition [2, 15]: 31.46 ± 0.34%
- % Inhibition [2, 16]: 55.54 ± 0.34%
- % Inhibition [2, 17]: 82.60 ± 0.40%
- IC50 [2, 18]: 750 µM

Structure (SMILES): CN(C)C(=N)NC(=N)N=Cc1ccccc1O.CN(C)C(=N)NC(=N)N=Cc1ccccc1O.O.O.O.O.O.O=S(=O)([O-])[O-].[Zn+2] [MZn2]
- % Inhibition [1, 11]: 43.55 ± 0.20%
- % Inhibition [1, 12]: 57.61 ± 0.15%
- % Inhibition [1, 13]: 71.37 ± 0.30%
- IC50 [1, 14]: 600 µM
- IC50 [2]: 484.9 µg/mL
- % Inhibition [2, 15]: 34.46 ± 0.23%
- % Inhibition [2, 16]: 69.32 ± 0.46%
- % Inhibition [2, 17]: 86.58 ± 0.40%
- IC50 [2, 18]: 670 µM

Structure (SMILES): CN(C)C(=N)NC(=N)N=CC=Cc1ccccc1.CN(C)C(=N)NC(=N)N=CC=Cc1ccccc1.O.O.O.O.O.O=S(=O)([O-])[O-].[Zn+2] [MZn3]
- % Inhibition [1, 11]: 50.22 ± 0.15%
- % Inhibition [1, 12]: 58.18 ± 0.21%
- % Inhibition [1, 13]: 68.63 ± 0.20%
- IC50 [1, 14]: 540 µM
- % Inhibition [2, 15]: 13.59 ± 0.34%
- % Inhibition [2, 16]: 41.55 ± 0.34%
- % Inhibition [2, 17]: 78.57 ± 0.28%
- IC50 [2, 18]: 780 µM

Structure (SMILES): C=NC(=N)NC(=N)N(C)C.C=NC(=N)NC(=N)N(C)C.O.O.O.O.O.O=S(=O)([O-])[O-].[Zn+2] [MZn4]
- % Inhibition [1, 11]: 11.30 ± 0.15%
- % Inhibition [1, 12]: 13.59 ± 0.20%
- % Inhibition [1, 13]: 14.71 ± 0.26%
- % Inhibition [2, 15]: 15.55 ± 0.34%
- % Inhibition [2, 16]: 31.49 ± 0.28%
- % Inhibition [2, 17]: 54.44 ± 0.28%
- IC50 [2, 18]: 500 µM

Structure (SMILES): CC(C)=NC(=N)NC(=N)N(C)C.CC(C)=NC(=N)NC(=N)N(C)C.O.O.O.O.O.O=S(=O)([O-])[O-].[Zn+2] [MZn5]
- % Inhibition [1, 11]: 32.86 ± 0.15%
- % Inhibition [1, 12]: 38.87 ± 0.10%
- % Inhibition [1, 13]: 49.46 ± 0.20%
- % Inhibition [2, 15]: 15.44 ± 0.28%
- % Inhibition [2, 16]: 37.60 ± 0.28%
- % Inhibition [2, 17]: 58.35 ± 0.17%
- IC50 [2, 18]: 560 µM

Structure (SMILES): CC(=NC(=N)NC(=N)N(C)C)c1ccccc1.CC(=NC(=N)NC(=N)N(C)C)c1ccccc1.O.O.O.O.O.O=S(=O)([O-])[O-].[Zn+2] [MZn6]
- % Inhibition [1, 11]: 36.67 ± 0.26%
- % Inhibition [1, 12]: 41.26 ± 0.32%
- % Inhibition [1, 13]: 44.51 ± 0.19%
- % Inhibition [2, 15]: 18.76 ± 0.17%
- % Inhibition [2, 16]: 33.29 ± 0.46%
- % Inhibition [2, 17]: 51.47 ± 0.28%
- IC50 [2, 18]: 540 µM

Structure (SMILES): CN(C)C(=N)NC(=N)N=C(c1ccccc1)c1ccccc1.CN(C)C(=N)NC(=N)N=C(c1ccccc1)c1ccccc1.O.O.O.O.O.O=S(=O)([O-])[O-].[Zn+2] [MZn7]
- % Inhibition [1, 11]: 33.67 ± 67%
- % Inhibition [1, 12]: 37.61 ± 0.20%
- % Inhibition [1, 13]: 42.54 ± 0.26%
- % Inhibition [2, 15]: 24.32 ± 0.51%
- % Inhibition [2, 16]: 44.52 ± 0.34%
- % Inhibition [2, 17]: 73.43 ± 0.28%
- IC50 [2, 18]: 250 µM

Structure (SMILES): COc1cc(C=NC(=N)NC(=N)N(C)C)ccc1O.COc1cc(C=NC(=N)NC(=N)N(C)C)ccc1O.O.O.O.O.O.O=S(=O)([O-])[O-].[Zn+2] [MZn8]
- IC50 [1]: 511.4 µg/mL
- % Inhibition [1, 11]: 49.24 ± 0.21%
- % Inhibition [1, 12]: 70.37 ± 0.25%
- % Inhibition [1, 13]: 81.54 ± 0.26%
- IC50 [1, 14]: 650 µM
- % Inhibition [2, 15]: 37.46 ± 0.23%
- % Inhibition [2, 16]: 68.50 ± 0.40%
- % Inhibition [2, 17]: 83.52 ± 0.40%
- IC50 [2, 18]: 900 µM

Structure (SMILES): CN(C)C(=N)NC(=N)N=C(c1ccccc1)C(O)c1ccccc1.CN(C)C(=N)NC(=N)N=C(c1ccccc1)C(O)c1ccccc1.O.O.O.O.O.O=S(=O)([O-])[O-].[Zn+2] (stereo not drawn) [MZn9]
- % Inhibition [1, 11]: 28.64 ± 0.25%
- % Inhibition [1, 12]: 37.51 ± 0.25%
- % Inhibition [1, 13]: 45.37 ± 0.20%
- % Inhibition [2, 15]: 15.64 ± 0.28%
- % Inhibition [2, 16]: 38.64 ± 0.40%
- % Inhibition [2, 17]: 59.70 ± 0.46%
- IC50 [2, 18]: 700 µM

Structure (SMILES): C=NC(=N)NC(=N)N(C)C [Met4, N,N-dimethyl-N′-methylidenetriimidodicarbonic diamide]
- % Inhibition [1, 19]: 17.49 ± 0.29%
- % Inhibition [1, 20]: 25.77 ± 0.35%
- % Inhibition [1, 21]: 43.72 ± 0.26%
- % Inhibition [2, 22]: 15.48 ± 0.15%
- % Inhibition [2, 23]: 37.65 ± 0.19%
- % Inhibition [2, 24]: 55.48 ± 0.23%
- IC50 [2, 25]: 700 µM

Structure (SMILES): CC(C)=NC(=N)NC(=N)N(C)C [Met5, N,N-dimethyl-N′-(propan-2-ylidene)triimidodicarbonic diamide]
- % Inhibition [1, 19]: 22.85 ± 0.15%
- % Inhibition [1, 20]: 39.43 ± 0.19%
- % Inhibition [1, 21]: 53.44 ± 0.15%
- IC50 [1, 26]: 2000 µM
- % Inhibition [2, 22]: 15.61 ± 0.20%
- % Inhibition [2, 23]: 39.48 ± 0.32%
- % Inhibition [2, 24]: 63.47 ± 0.23%
- IC50 [2, 25]: 740 µM

Structure (SMILES): C/C(=N\C(=N)NC(=N)N(C)C)c1ccccc1 [Met6, N,N-dimethyl-N′-[(1E)-1-phenylethylidene]triimidodicarbonic diamide]
- % Inhibition [1, 19]: 16.41 ± 0.19%
- % Inhibition [1, 20]: 28.86 ± 0.15%
- % Inhibition [1, 21]: 51.47 ± 0.26%
- IC50 [1, 26]: 1300 µM
- % Inhibition [2, 22]: 18.48 ± 0.26%
- % Inhibition [2, 23]: 33.35 ± 0.20%
- % Inhibition [2, 24]: 41.34 ± 0.17%
- IC50 [2, 25]: 1700 µM

Structure (SMILES): CN(C)C(=N)NC(=N)N=C(c1ccccc1)c1ccccc1 [Met7, N′-(diphenylmethylidene)-N,N-dimethyltriimidodicarbonic diamide]
- % Inhibition [1, 19]: 27.42 ± 0.32%
- % Inhibition [1, 20]: 41.84 ± 0.15%
- % Inhibition [1, 21]: 55.77 ± 0.01%
- IC50 [1, 26]: 900 µM
- % Inhibition [2, 22]: 24.25 ± 0.20%
- % Inhibition [2, 23]: 34.45 ± 0.26%
- % Inhibition [2, 24]: 48.33 ± 0.51%
- IC50 [2, 25]: 1400 µM

Structure (SMILES): CN(C)C(=N)NC(=N)N=C(c1ccccc1)C(O)c1ccccc1 (stereo not drawn) [Met9, N′-[(1Z)-2-hydroxy-1,2-diphenylethylidene]-N,N-dimethyltriimidodicarbonic diamide]
- % Inhibition [1, 19]: 10.79 ± 0.10%
- % Inhibition [1, 20]: 29.86 ± 0.10%
- % Inhibition [1, 21]: 39.09 ± 0.05%
- % Inhibition [2, 22]: 5.41 ± 0.20%
- % Inhibition [2, 23]: 8.61 ± 0.25%
- % Inhibition [2, 24]: 19.71 ± 0.46%
- IC50 [2, 25]: 790 µM

Structure (SMILES): CN(C)C(=N)N=C(N)N [Met, N,N-dimethyltriimidodicarbonic diamide, reference compound]
- % Inhibition [1, 19]: 41.73 ± 0.10%
- % Inhibition [1, 20]: 52.83 ± 0.11%
- % Inhibition [1, 21]: 81.30 ± 0.10%
- IC50 [1, 26]: 4800 µM
- % Inhibition [2, 22]: 55.27 ± 0.20%
- % Inhibition [2, 23]: 63.18 ± 0.20%
- % Inhibition [2, 24]: 85.25 ± 0.32%
- IC50 [2, 25]: 9400 µM
